Source: publication PMC8037182, “Solvothermal Synthesis of Multiple Dihydropyrimidinones at a Time as Inhibitors of Eg5” (Molecules, 2021)
pIC50: −log10 of the molar value.

Tested on: Caco-2 cell line
Test: Cytotoxicity MTS assay, Caco-2 cell line
Type: cell-based
Conditions: for OD490 Mean / OD490 Well 1 / OD490 Well 2 / OD490 Well 3: Caco-2 cell line; for pIC50: MTS assay, 24 h exposure
Procedure: The positive compounds (IC50 < 100 μM) obtained from the primary Eg5 motor protein ATPase assay were tested for antiproliferative activity in vitro against Caco-2 cell line, Hela cell line, L929 cell line and T24 cell line by performing MTS assay. Cells were introduced into 96-well plates at a density of 1000 cells per well. After 24 h incubation, the cells were exposed with compounds at final concentrations ranging from 0.5 to 100 µM for 24 h. DMSO was used at a final concentration of 0.025% as blank control, monastrol was used as the positive control. Then 20 µL (CellTiter 96® AQueous One Solution Promega, Madison, WI, USA) reagent was added in each well. After 2 h at 37 °C in a 80% humidified, 5% CO2 atmosphere, the absorbance at 490 nm was recorded using a microplate reader (BIO-RAD iMark^TM). The results were obtained in three independent duplicate experiments. The primary data were shown in Supplementary Materials Tables S4–S7. The IC50 values for these compounds were calculated from a non-linear regression graph plotted between the percentage of cell viability and concentration with SPSS17.0 software.

## CCOC(=O)c1[nH]c(C2NC(=O)NC(C)=C2C(=O)Nc2ccc(Cl)cc2)c(C(=O)OCC)c1C (centres unmarked) [D7]
0.5μM, first assay
  OD490 Mean: 0.5690
  OD490 Well 1: 0.5534
  OD490 Well 2: 0.6352
  OD490 Well 3: 0.5185
0.5μM, second assay
  OD490 Mean: 0.6172
  OD490 Well 1: 0.6374
  OD490 Well 2: 0.6303
  OD490 Well 3: 0.5839
0.5μM, third assay
  OD490 Mean: 0.5837
  OD490 Well 1: 0.6634
  OD490 Well 2: 0.5231
  OD490 Well 3: 0.5647
1μM, first assay
  OD490 Mean: 0.5311
  OD490 Well 1: 0.5419
  OD490 Well 2: 0.5318
  OD490 Well 3: 0.5197
1μM, second assay
  OD490 Mean: 0.5625
  OD490 Well 1: 0.5454
  OD490 Well 2: 0.5593
  OD490 Well 3: 0.5827
1μM, third assay
  OD490 Mean: 0.5540
  OD490 Well 1: 0.5665
  OD490 Well 2: 0.5741
  OD490 Well 3: 0.5214
10μM, first assay
  OD490 Mean: 0.5404
  OD490 Well 1: 0.5519
  OD490 Well 2: 0.5485
  OD490 Well 3: 0.5208
10μM, second assay
  OD490 Mean: 0.5334
  OD490 Well 1: 0.5402
  OD490 Well 2: 0.5543
  OD490 Well 3: 0.5057
10μM, third assay
  OD490 Mean: 0.5421
  OD490 Well 1: 0.5552
  OD490 Well 2: 0.5101
  OD490 Well 3: 0.5610
25μM, first assay
  OD490 Mean: 0.5145
  OD490 Well 1: 0.5041
  OD490 Well 2: 0.5114
  OD490 Well 3: 0.5279
25μM, second assay
  OD490 Mean: 0.5117
  OD490 Well 1: 0.548
  OD490 Well 2: 0.4698
  OD490 Well 3: 0.5172
25μM, third assay
  OD490 Mean: 0.5181
  OD490 Well 1: 0.5221
  OD490 Well 2: 0.5321
  OD490 Well 3: 0.5000
50μM, first assay
  OD490 Mean: 0.4389
  OD490 Well 1: 0.5283
  OD490 Well 2: 0.4168
  OD490 Well 3: 0.3716
50μM, second assay
  OD490 Mean: 0.4826
  OD490 Well 1: 0.5209
  OD490 Well 2: 0.4937
  OD490 Well 3: 0.4332
50μM, third assay
  OD490 Mean: 0.4437
  OD490 Well 1: 0.5112
  OD490 Well 2: 0.4213
  OD490 Well 3: 0.3987
100μM, first assay
  OD490 Mean: 0.3891
  OD490 Well 1: 0.3713
  OD490 Well 2: 0.3955
  OD490 Well 3: 0.4006
100μM, second assay
  OD490 Mean: 0.4527
  OD490 Well 1: 0.4755
  OD490 Well 2: 0.4428
  OD490 Well 3: 0.4398
100μM, third assay
  OD490 Mean: 0.3973
  OD490 Well 1: 0.4012
  OD490 Well 2: 0.4123
  OD490 Well 3: 0.3785
  pIC50: 4.09

## CCOC(=O)c1c(C2NC(=O)NC(C)=C2C(=O)Nc2ccccc2)[nH]c(C(=O)OC)c1C (centres unmarked) [D10]
0.5μM, first assay
  OD490 Mean: 0.4742
  OD490 Well 1: 0.4527
  OD490 Well 2: 0.4966
  OD490 Well 3: 0.4734
0.5μM, second assay
  OD490 Mean: 0.5530
  OD490 Well 1: 0.531
  OD490 Well 2: 0.6234
  OD490 Well 3: 0.5045
0.5μM, third assay
  OD490 Mean: 0.6289
  OD490 Well 1: 0.6132
  OD490 Well 2: 0.6414
  OD490 Well 3: 0.6321
1μM, first assay
  OD490 Mean: 0.5016
  OD490 Well 1: 0.5182
  OD490 Well 2: 0.4910
  OD490 Well 3: 0.4957
1μM, second assay
  OD490 Mean: 0.6121
  OD490 Well 1: 0.5315
  OD490 Well 2: 0.6788
  OD490 Well 3: 0.626
1μM, third assay
  OD490 Mean: 0.6367
  OD490 Well 1: 0.6031
  OD490 Well 2: 0.6621
  OD490 Well 3: 0.6449
10μM, first assay
  OD490 Mean: 0.4933
  OD490 Well 1: 0.4499
  OD490 Well 2: 0.5248
  OD490 Well 3: 0.5052
10μM, second assay
  OD490 Mean: 0.5658
  OD490 Well 1: 0.6
  OD490 Well 2: 0.624
  OD490 Well 3: 0.4735
10μM, third assay
  OD490 Mean: 0.6081
  OD490 Well 1: 0.6012
  OD490 Well 2: 0.6321
  OD490 Well 3: 0.5911
25μM, first assay
  OD490 Mean: 0.4730
  OD490 Well 1: 0.3491
  OD490 Well 2: 0.5643
  OD490 Well 3: 0.5057
25μM, second assay
  OD490 Mean: 0.5406
  OD490 Well 1: 0.5132
  OD490 Well 2: 0.5889
  OD490 Well 3: 0.5197
25μM, third assay
  OD490 Mean: 0.5321
  OD490 Well 1: 0.5365
  OD490 Well 2: 0.4987
  OD490 Well 3: 0.5612
50μM, first assay
  OD490 Mean: 0.4403
  OD490 Well 1: 0.3579
  OD490 Well 2: 0.5436
  OD490 Well 3: 0.4193
50μM, second assay
  OD490 Mean: 0.4763
  OD490 Well 1: 0.4113
  OD490 Well 2: 0.5208
  OD490 Well 3: 0.4969
50μM, third assay
  OD490 Mean: 0.4757
  OD490 Well 1: 0.4698
  OD490 Well 2: 0.4875
  OD490 Well 3: 0.4698
100μM, first assay
  OD490 Mean: 0.4342
  OD490 Well 1: 0.3369
  OD490 Well 2: 0.4685
  OD490 Well 3: 0.4971
100μM, second assay
  OD490 Mean: 0.4596
  OD490 Well 1: 0.4737
  OD490 Well 2: 0.4587
  OD490 Well 3: 0.4463
100μM, third assay
  OD490 Mean: 0.4349
  OD490 Well 1: 0.4356
  OD490 Well 2: 0.4169
  OD490 Well 3: 0.4521
  pIC50: 3.97
